The record followed here is patent US10759783B2, “Biaryl inhibitors of Bruton'S tyrosine kinase” (BIOGEN MA INC., priority 2013, dated 2020).

For assay [1], the target named is BTK (phospho-BTK) in human whole blood (Homo sapiens, UniProt Q06187). Kind of assay: In vitro PD assay in human whole blood (pBTK assay).
A further assay concerns the target T1, BTK enzyme (Homo sapiens, UniProt Q06187).
T1 construct: purchased Upstate 14-552
Kind of assay: In vitro BTK kinase assay: BTK-POLYGAT-LS assay. Format: biochemical. To be noted: ATP 10 μM, read-out: IC50 (10uMATP). In a few lines: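 Human BTK activity was measured with final 10 μM ATP and 100 nM polyGAT substrate in pH 7.5 Tris buffer with 10 mM MgCl2, DTT, Triton X-100 and casein.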

T1 sequence (Q06187 whole entry): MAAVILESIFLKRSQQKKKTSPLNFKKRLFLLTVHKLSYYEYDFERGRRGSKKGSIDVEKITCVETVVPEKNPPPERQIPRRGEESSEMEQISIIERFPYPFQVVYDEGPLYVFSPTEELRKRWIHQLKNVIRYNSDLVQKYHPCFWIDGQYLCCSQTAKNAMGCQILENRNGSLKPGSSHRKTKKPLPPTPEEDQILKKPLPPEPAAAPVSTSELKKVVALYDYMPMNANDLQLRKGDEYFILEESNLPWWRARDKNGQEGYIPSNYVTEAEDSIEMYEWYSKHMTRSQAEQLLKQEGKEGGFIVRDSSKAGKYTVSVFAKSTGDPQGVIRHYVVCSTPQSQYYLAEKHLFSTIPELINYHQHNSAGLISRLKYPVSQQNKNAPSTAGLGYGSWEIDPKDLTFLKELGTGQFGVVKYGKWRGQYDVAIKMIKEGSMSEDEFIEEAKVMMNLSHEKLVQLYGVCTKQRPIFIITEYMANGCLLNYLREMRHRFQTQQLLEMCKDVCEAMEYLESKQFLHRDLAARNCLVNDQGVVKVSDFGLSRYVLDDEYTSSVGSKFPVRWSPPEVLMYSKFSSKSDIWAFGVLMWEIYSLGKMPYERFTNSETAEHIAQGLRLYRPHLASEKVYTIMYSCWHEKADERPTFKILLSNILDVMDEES
Sequence of BTK (phospho-BTK) in human whole blood (Q06187 whole entry): as above

In the case of `Cn1cc(Nc2nccc(-c3ccc4c(c3)CCCC[C@H]4NC(=O)N3CC(OC(C)(C)C)C3)n2)cn1` [Example I-164, (R)-3-(tert-butoxy)-N-(2-(2-((1-methyl-1H-pyrazol-4-yl)amino)pyrimidin-4-yl)-6,7,8,9-tetrahydro-5H-benzo[7]annulen-5-yl)azetidine-1-carboxamide], the IC50 – broadly, the concentration needed to halve the response being measured – was under 500 nM in assay [1] and under 10 nM at BTK enzyme.
In the case of `Cc1cc(-c2cc(Nc3cc4n(n3)CCCN(C)C4)ncn2)ccc1CNC(=O)c1cnn(C(C)(C)C)c1` [Example I-236, 1-(tert-butyl)-N-(2-methyl-4-(6-((5-methyl-5,6,7,8-tetrahydro-4H-pyrazolo[1,5-a][1,4]diazepin-2-yl)amino)pyrimidin-4-yl)benzyl)-1H-pyrazole-4-carboxamide], the values for the IC50 (in assay [1]; on BTK enzyme) were under 500 nM and under 10 nM, respectively.
For `Cc1cc(-c2cc(Nc3ccc4c(n3)CCNC4)ncn2)ccc1CNC(=O)c1cnc(C(C)(C)C)s1` [Example I-266, 2-tert-butyl-N-[[2-methyl-4-[6-(5,6,7,8-tetrahydro-1,6-naphthyridin-2-ylamino)pyrimidin-4-yl]phenyl]methyl]thiazole-5-carboxamide], the values for the IC50 (in assay [1]; at BTK enzyme) were under 500 nM and under 10 nM, respectively.
The like results for `Cc1cc(-c2ccnc(Nc3cnn(C[C@@H](N)C(=O)O)c3)n2)ccc1CNC(=O)c1cnc(C(C)(C)C)s1` [Example I-132, (R)-2-amino-3-(4-((4-(4-((2-(tert-butyl)thiazole-5-carboxamido)methyl)-3-methylphenyl)pyrimidin-2-yl)amino)-1H-pyrazol-1-yl)propanoic acid] were, in that order, 1500 to 10000 nM and under 10 nM.
Consider `Cc1cc(-c2ccnc(Nc3cnn4c3CCC4)n2)ccc1CNC(=O)c1cnc(C(C)(C)C)s1` [Example I-315, 2-tert-butyl-N-[[4-[2-(5,6-dihydro-4H-pyrrolo[1,2-b]pyrazol-3-ylamino)pyrimidin-4-yl]-2-methyl-phenyl]methyl]thiazole-5-carboxamide], for which the IC50 in assay [1] is under 500 nM; at BTK enzyme, under 10 nM.
For `CCC1CN(C(=O)NCc2ccc(-c3ccnc(Nc4cnn(C)c4)n3)cc2C)C1` [Example I-238, 3-Ethyl-N-(2-methyl-4-(2-((1-methyl-1H-pyrazol-4-yl)amino)pyrimidin-4-yl)benzyl)azetidine-1-carboxamide], the IC50 in assay [1] was under 500 nM; on BTK enzyme it was under 10 nM.
In the same order, the values of `Cc1cc(-c2ccnc(Nc3cnn(C4CN(C)C4)c3)n2)ccc1CNC(=O)c1cnc(C(C)(C)C)s1` [Example I-43, 2-(tert-butyl)-N-(2-methyl-4-(2-((1-(1-methylazetidin-3-yl)-1H-pyrazol-4-yl)amino)pyrimidin-4-yl)benzyl)thiazole-5-carboxamide] are under 500 nM and under 10 nM.
For `Cc1cc(-c2ccnc(Nc3cn[nH]c3)n2)ccc1CNC(=O)N1CC(OC(C)C)C1` [Example I-222, N-(4-(2-((1H-pyrazol-4-yl)amino)pyrimidin-4-yl)-2-methylbenzyl)-3-isopropoxyazetidine-1-carboxamide], the IC50 in assay [1] was 500 to 1500 nM; on BTK enzyme, under 10 nM.
With `Cc1cc(-c2ccnc(Nc3cnn(C)c3C)n2)ccc1CNC(=O)c1cnc(C(C)(C)C)s1` [Example I-52, 2-(tert-butyl)-N-(4-(2-((1,5-dimethyl-1H-pyrazol-4-yl)amino)pyrimidin-4-yl)-2-methylbenzyl)thiazole-5-carboxamide], the IC50 is under 500 nM in assay [1] and under 10 nM on BTK enzyme.
The like results for `COCCc1cc(-c2ccnc(Nc3cnn4c3CCC4)n2)ccc1CNC(=O)N1CC(OC(C)(C)C)C1` [Example I-323, 3-tert-butoxy-N-[[4-[2-(5,6-dihydro-4H-pyrrolo[1,2-b]pyrazol-3-ylamino)pyrimidin-4-yl]-2-(2-methoxyethyl)phenyl]methyl]azetidine-1-carboxamide] were, in that order, under 500 nM and under 10 nM.
With `Cn1cc(Nc2nccc(-c3ccc4c(c3)CCNCC4NC(=O)N3CC(OC(C)(C)C)C3)n2)cn1` (centres unmarked) [Example I-248, 3-(tert-butoxy)-N-(7-(2-((1-methyl-1H-pyrazol-4-yl)amino)pyrimidin-4-yl)-2,3,4,5-tetrahydro-H-benzo[d]azepin-1-yl)azetidine-1-carboxamide], the IC50 is under 500 nM in assay [1] and under 10 nM at BTK enzyme.
Take `Cc1cc(-c2cc(Nc3ccc(N4CCN(C)CC4)cn3)ncn2)ccc1CNC(=O)c1cnn(C(C)(C)C)c1` [Example I-225, 1-(tert-butyl)-N-(2-methyl-4-(6-((5-(4-methylpiperazin-1-yl)pyridin-2-yl)amino)pyrimidin-4-yl)benzyl)-1H-pyrazole-4-carboxamide]: the IC50 in assay [1] is under 500 nM; at BTK enzyme it was under 10 nM.
On to `Cc1cc(-c2cc(Nc3cc4n(n3)CCN(C)C4)ncn2)ccc1CNC(=O)N1CC[C@@H](C(C)(C)C)C1` [Example I-244, (S)-3-(tert-butyl)-N-(2-methyl-4-(6-((5-methyl-4,5,6,7-tetrahydropyrazolo[1,5-a]pyrazin-2-yl)amino)pyrimidin-4-yl)benzyl)pyrrolidine-1-carboxamide], for which the IC50 in assay [1] was under 500 nM; on BTK enzyme, under 10 nM.
In the same order, the values of `Cc1cc(-c2ccnc(Nc3cnn(C4CC4)c3)n2)ccc1CNC(=O)c1cnn(C(C)(C)C)c1` [Example I-260, 1-tert-butyl-N-[[4-[2-[(1-cyclopropylpyrazol-4-yl)amino]pyrimidin-4-yl]-2-methyl-phenyl]methyl]pyrazole-4-carboxamide] are under 500 nM and under 10 nM.
Consider `CN1CCC(n2cc(Nc3nccc(-c4ccc5c(c4)CCCCC5NC(=O)N4CC(OC(C)(C)C)C4)n3)cn2)CC1` (centres unmarked) [Example I-180, 3-(tert-butoxy)-N-(2-(2-((1-(1-methylpiperidin-4-yl)-1H-pyrazol-4-yl)amino)pyrimidin-4-yl)-6,7,8,9-tetrahydro-5H-benzo[7]annulen-5-yl)azetidine-1-carboxamide], for which the values for the IC50 (in assay [1]; at BTK enzyme) were under 500 nM and under 10 nM, respectively.
In the same order, the values of `Cc1cc(-c2ccnc(Nc3cnn(C)c3C)n2)ccc1CNC(=O)N1CC(OC(C)(C)C)C1` [Example I-223, 3-(tert-butoxy)-N-(4-(2-((1,5-dimethyl-1H-pyrazol-4-yl)amino)pyrimidin-4-yl)-2-methylbenzyl)azetidine-1-carboxamide] are 500 to 1500 nM and under 10 nM.
As to `Cc1cc(-c2ccnc(Nc3cnn(C4CC(C(=O)O)C4)c3)n2)ccc1CNC(=O)c1cnc(C(C)(C)C)s1` (centres unmarked) [Example I-44, 3-(4-((4-(4-((2-(tert-butyl)thiazole-5-carboxamido)methyl)-3-methylphenyl)pyrimidin-2-yl)amino)-1H-pyrazol-1-yl)cyclobutanecarboxylic acid], the figures for the IC50 (in assay [1]; on BTK enzyme) were under 500 nM and under 10 nM, respectively.
In the same order, the values of `CC(C)OC1CN(C(=O)NC2CCCOc3cc(-c4ccnc(Nc5cnn(C)c5)n4)ccc32)C1` (centres unmarked) [Example I-335, 3-isopropoxy-N-[8-[2-[(1-methylpyrazol-4-yl)amino]pyrimidin-4-yl]-2,3,4,5-tetrahydro-1-benzoxepin-5-yl]azetidine-1-carboxamide] are under 500 nM and under 10 nM.
In the same order, the values of `CCn1cc(Nc2nccc(-c3ccc4c(c3)CCCCC4NC(=O)N3CCC(C(C)C)C3)n2)cn1` (centres unmarked) [Example I-341, N-[2-[2-[(1-ethylpyrazol-4-yl)amino]pyrimidin-4-yl]-6,7,8,9-tetrahydro-5H-benzo[7]annulen-5-yl]-3-isopropyl-pyrrolidine-1-carboxamide] are under 500 nM and under 10 nM.
With `CN1CC[C@@H](n2cc(Nc3nccc(-c4ccc(CNC(=O)N5CCC(C(C)(C)C)C5)c(C(F)(F)F)c4)n3)cn2)C1` (stereo partly drawn) [Example I-208, 3-(tert-butyl)-N-(4-(2-((1-((R)-1-methylpyrrolidin-3-yl)-1H-pyrazol-4-yl)amino)pyrimidin-4-yl)-2-(trifluoromethyl)benzyl)pyrrolidine-1-carboxamide], the IC50 in assay [1] is under 500 nM; on BTK enzyme, under 10 nM.
The like results for `Cc1cc(-c2ccnc(Nc3cnn(C)c3)n2)ccc1CNC(=O)c1cc2c(s1)CCOC2` [Example I-3, N-(2-methyl-4-(2-((1-methyl-1H-pyrazol-4-yl)amino)pyrimidin-4-yl)benzyl)-6,7-dihydro-4H-thieno[3,2-c]pyran-2-carboxamide] were, in that order, 1500 to 10000 nM and under 10 nM.
The like results for `COCCn1cc(Nc2nccc(-c3ccc(CNC(=O)N4CCC(C(C)C)C4)c(C(F)(F)F)c3)n2)cn1` (centres unmarked) [Example I-317, 3-isopropyl-N-[[4-[2-[[1-(2-methoxyethyl)pyrazol-4-yl]amino]pyrimidin-4-yl]-2-(trifluoromethyl)phenyl]methyl]pyrrolidine-1-carboxamide] were, in that order, under 500 nM and under 10 nM.
Regarding `Cc1cc(-c2ccnc(Nc3cnn(C4CCN(C)CC4)c3)n2)ccc1CNC(=O)N1CC(OC(C)(C)C)C1` [Example I-302, 3-tert-butoxy-N-[[2-methyl-4-[2-[[1-(1-methyl-4-piperidyl)pyrazol-4-yl]amino]pyrimidin-4-yl]phenyl]methyl]azetidine-1-carboxamide], the figures for the IC50 (in assay [1]; at BTK enzyme) were under 500 nM and under 10 nM, respectively.
In the same order, the values of `COCCc1cc(-c2ccnc(Nc3cnn(C)c3)n2)ccc1CNC(=O)N1CCC(C(C)(C)C)C1` (centres unmarked) [Example I-320, 3-tert-butyl-N-[[2-(2-methoxyethyl)-4-[2-[(1-methylpyrazol-4-yl)amino]pyrimidin-4-yl]phenyl]methyl]pyrrolidine-1-carboxamide] are under 500 nM and under 10 nM.
With `Cc1cc(-c2ccnc(Nc3cnn(C4CCC(C(=O)O)CC4)c3)n2)ccc1CNC(=O)c1cnn(C(C)(C)C)c1` (centres unmarked) [Example I-292, 4-[4-[[4-[4-[[(1-tert-butylpyrazole-4-carbonyl)amino]methyl]-3-methyl-phenyl]pyrimidin-2-yl]amino]pyrazol-1-yl]cyclohexanecarboxylic acid], the IC50 in assay [1] was under 500 nM; on BTK enzyme, under 10 nM.
